This is an account of results in patent US6008356A, “Pharmaceutically available protoberberine salts derivatives, and protoberberine salts derivatives, and protoberberine derivatives and salts thereof” (priority 1998, dated 1999).

Where a name gives a salt, the structure may show the parent alone.

One data set relates to C. glulliermendi. The data set can be described thus: MIC. In kind it is cell-based. The conditions noted are these: C. glulliermendi; read-out: MIC.
Another data set has as its system C. albicans OY 019. The data set can be described thus: MIC. In kind it is cell-based, Candida albicans. The following applies: Candida albicans, OY019; C. albicans OY 019; read-out: MIC.
Another data set deals with C. glabrata. The data set can be described thus: MIC. It is filed as cell-based. The following applies: Nakaseomyces glabratus; C. glabrata; read-out: MIC.
Another data set has as its system male ICR mice. The following applies: mouse, in vivo.
The subject of the next data set is Epidermophyton floccosum. The data set can be described thus: Antifungal efficacy of creamy formulation against local fungal skin infection. It is filed as in vivo, mouse (SKH/1, hairless, male). The conditions noted are these: 0.5% cream, topical. The protocol:
Specific pathogen free SKH/1 male mouse(Hairless) of which weight is 30-35 g and age is 5 weeks, was reared with sterilized water and feed for 12 night/day in the condition of 21-23° C. and of 50% relative humidity. Five mice were allocated by each group. After skin infection, each mouse was taken in separate cage. The strain of microorganism for infection(Epidermophyton floccosum) was cultivated on a flat medium of SDA(Sabouraud Dextrose Agar) for 5-7 days and after confirmation of macrocomidia, 3 ml of RPMI (Rosewell Park Memorial Institute) 1640 media per each flat medium was added thereto and then scraped well using loop to remove hyphae from media. The floating liquid was suspended briefly and then diluted with RPMI 1640 media to adjust the concentration of hyphae to 2×10^6 CFU/ml. Mouse was anesthetized and marked on back site(lumbosacral area) in a shape of circle of which diameter is 1.5 cm. Then, the inner part of marked skin was scratched with sand paper. The scratched part was covered with a filter paper to preserve inoculated microorganism for a long time and thereby stimulating the skin continuously. 0.2 ml of fungus solution of which concentration is adjusted as described above, was inoculated between the skin and filter paper. 5 Days after the inoculation, the filter paper was removed and the infection of skin was examined. The test formulations, 0.5% creamy formulations of the compounds Nos. 62 and 85, 1.0% creamy formulation of Terbinafine(Lamisile cream) and a placebo was applied on the infected areas in a same amount once a day for 5 days. The clinical evaluation on the change of the infected area in 5 days after the inoculation was performed and expressed numerically from 0 to 4. The daily change of the infected area was checked every day. The result of each group was compared with each other.
1: Mild erythema or small number of skin eruption
2: Well-demarcated erythema with scales or mild skin eruption of infected area
3: Wide area of marked skin eruption, scales, swelling or severe skin eruption with partial swelling and scales
4: The same as those of control, or severe skin eruption in entire lesion
The result was calculated as follows;
T: Average score of clinical evaluation in drug treated area
K: Average score of clinical evaluation in placebo control group
Moreover, the antifungal efficacies of the 0.5% creamy formulation of the compounds Nos. 29, 35, 60, 62, 63 and 85, and 1% creamy formulation of Terbinafme (Lamisil cream), which are measured by applying the above formulations on the skin infected with Epidermophyton floccosum of mouse which is the standard animal for the test of local fungal skin infection, i.e, Specific Pathogen Free SKH/1, are described in the following Table 4.

The test system of a further data set is E. floccosum. The data set can be described thus: MIC. It is filed as cell-based, Epidermophyton floccosum. The following applies: Epidermophyton floccosum; E. floccosum; read-out: MIC.
In another data set the test system is salmonella typhimurium. Put plainly: bacterial reverse mutation test (Ames test). In kind it is cell-based.
The next data set deals with C. krusei. Put plainly: MIC. It is filed as cell-based. The conditions noted are these: Pichia kudriavzevii; C. krusei; read-out: MIC.
In the next data set the test system is C. parapsilosis. Put plainly: MIC. The following applies: Lodderomyces parapsilosis; C. parapsilosis; read-out: MIC. It is filed as cell-based.
The next data set has as its system C. albicans U.K. Put plainly: MIC. It is filed as cell-based. The conditions noted are these: Candida albicans; C. albicans U.K.; read-out: MIC.
For the next data set, the system named is C. albicans ATCC 28838. Put plainly: MIC. In kind it is cell-based, Candida albicans. The conditions noted are these: Candida albicans, ATCC28838; C. albicans ATCC 28838; read-out: MIC.
A further data set relates to fungal infection of foot. Put plainly: 0.5% creamy formulation applied on male patients with fungal infection of foot. In kind it is in vivo, human (male patients). The conditions noted are these: 0.5% cream once a day for five days. The text has this:
The above 0.5% creamy formulation of the compound No. 62 was applied on infected area of 10 male patients with fungal infection of foot, in a proper amount once a day for five days.

For the next data set, the system named is C. albicans ATCC 10231. Put plainly: MIC. In kind it is cell-based. The conditions noted are these: Candida albicans, ATCC10231; C. albicans ATCC 10231; read-out: MIC.
In the next data set the test system is C. albicans IFO 1385. Put plainly: MIC. It is filed as cell-based, Candida albicans. The conditions noted are these: Candida albicans, IFO1385; C. albicans IFO 1385; read-out: MIC.
For another data set, the system named is C. albicans OY 003. The data set can be described thus: MIC. In kind it is cell-based, Candida albicans. The following applies: Candida albicans, OY003; C. albicans OY 003; read-out: MIC.
The test system of a further data set is C. albicans ATCC 11651. The data set can be described thus: MIC. It is filed as cell-based, Candida albicans. The following applies: Candida albicans, ATCC11651; C. albicans ATCC 11651; read-out: MIC.
Data set [1] relates to cultured lung cells derived from chinese hamster. It is filed as cell-based.
The next data set relates to C. albicans KCTC 1940. The data set can be described thus: MIC. It is filed as cell-based, Candida albicans. The conditions noted are these: Candida albicans, KCTC1940; C. albicans KCTC 1940; read-out: MIC.
The next data set in a line: acute oral toxicity. The conditions noted are these: rat, in vivo, po, rats. How it is done:
(§1) Meanwhile, the toxicity test of the compound of the present invention was performed using […]. The compound was suspended in propylene glycol. The resulting suspension was medicated respectively on 5 female rats and 5 male rats(SD) of which age are 5 weeks, via oral after 12 hour starvation. The general symtoms, weight change and lethal case of the above rats were investigated. In cases of tests of the compound Nos. 25, 62, 63 and 85 (delivery of 2,000 mg/kg), the general symtom and weight change were normal and the lethal case was not observed. […] The toxicity data on the compound Nos. 25, 62, 63 and 85 are described in the following Table 5. In light forgoings, the compounds of the present invention are safe in toxicity and have the excellent lethal effect and growth-inhibition effect against fungus.

The next data set has as its system rats. The data set can be described thus: acute oral toxicity. The following applies: rat, in vivo. How it is done: as §1
For another data set, the system named is Candida albicans. The following applies: oral, 350-700 mg/kg; Mirska et al. 1972; cited from earlier work.
A further data set relates to human. The following applies: may cause harmful or lethal effect on human in case of being dosed excessively; cited from earlier work.
Data set [2] relates to fungi, such as Alternaria sp., Aspergillus flavus, Aspergdlus fumigatus, Candida albicans, Curvularia sp., Drechslera sp., Fusarium sp., Mucor sp., Penicillium …. The conditions noted are these: Mahajan et al. 1982; cited from earlier work.

As a reminder, the MIC is the smallest concentration in the dilution series that meets the test's criterion for growth inhibition. Broadly, the LD50 is the dose expected to kill half of the subjects tested. Higher therefore signals a less toxic substance. Regarding `COc1ccc2c(Cc3ccc(C(C)(C)C)cc3)c3[n+](cc2c1OC)CCc1cc2c(cc1-3)OCO2` [compound 62, 13-(4-t-butylbenzyl)berberine chloride], the MIC in the data set on C. glulliermendi was 12.5 µg/mL; in the data set with C. albicans OY 019, 0.78 µg/mL; in the data set on C. glabrata, above 100 µg/mL; in the data set with E. floccosum, 12.5 µg/mL; in the data set on C. krusei, 3.12 µg/mL; with C. parapsilosis, above 100 µg/mL. Besides, the MIC in the data set with C. albicans U.K. was 6.25 µg/mL; in the data set with C. albicans ATCC 28838, 0.78 µg/mL; with C. albicans ATCC 10231, 6.25 µg/mL; in the data set on C. albicans IFO 1385 it was 6.25 µg/mL; in the data set on C. albicans OY 003 it was 0.78 µg/mL; in the data set with C. albicans ATCC 11651 it was 0.78 µg/mL. For the same molecule, in the data set on C. albicans KCTC 1940, the MIC is 0.78 µg/mL. For the same molecule, the “nucleus test (micronucleous test)” value in the data set with male ICR mice is “negative”. For the same molecule, the “Efficacy (%) 0 day later” value in the data set on Epidermophyton floccosum (0 day later) turned out to be 0%. Besides, in the data set on Epidermophyton floccosum (1 day later), the “Efficacy (%) 1 day later” value worked out at 40.0%. Further, in the data set on Epidermophyton floccosum (2 day later), the “Efficacy (%) 2 day later” value came to 55.4%. In the data set on Epidermophyton floccosum (3 day later), the “Efficacy (%) 3 day later” value was 69.4%. Besides, in the data set with Epidermophyton floccosum (4 day later), the “Efficacy (%) 4 day later” value stood at 72.6%. In the data set on Epidermophyton floccosum (5 day later), the “Efficacy (%) 5 day later” value is listed as 76.3%. In the data set with Epidermophyton floccosum (6 day later), the “Efficacy (%) 6 day later” value was determined as 79.2%. Moreover, in the data set with Epidermophyton floccosum (7 day later), the “Efficacy (%) 7 day later” value is 85.4%. Moreover, the AMES test result in the data set on salmonella typhimurium was “negative”. Besides, in the data set on fungal infection of foot (in 8 of 10 male patients), the remedial effect entry is “more than 98%”. The “patients exhibiting remedial effect more than 98%” value in the data set with fungal infection of foot (of 10 male patients) is recorded as 8 Patients. In addition, the chromosome abnormality test result in [1] is given as “negative”. Besides, the LD50 was above 2700 mg/kg in “acute oral toxicity” (female) and above 3700 mg/kg in “acute oral toxicity” (male). Also, the lethal case result in the data set with rats is recorded as “not observed”.
For the molecule `COc1ccc2cc3[n+](cc2c1OC)CCc1cc2c(cc1-3)OCO2` [berberine sulfate], the “effect in mice infected with Candida albicans” value in the data set on Candida albicans is listed as “effective”. In the data set with human, the toxicity result is recorded as “exhibits intense toxicity”. Further, in [2], the “concentration inhibiting the growth of fungi” value was 10 to 25 mg/mL.
